Patent US8349801B2, “Peptide ligands for G-protein coupled receptors” (priority 2006, dated 2013)
No end group written: not given here.

Columns and labels:
[1] = tested on: Zymosan-induced murine dorsal air pouch model; assay type: in vivo, mice; details: 200 μg/mouse i.v., 4 h
Procedure: In order to analyze the ability of P58 to exert in vivo effects via the FPRL1 receptor, an acute experimental model of inflammation, the Zymosan-induced murine dorsal air pouch model, was used.
Male out-bred Swiss albino mice were purchased from Harlan, UK (T.O. strain) and maintained on a standard chow pellet diet with tap water ad libitum and a 12:00 h light/dark cycle. All animals were housed for 7 days prior to experimentation to allow body weight to reach ˜30 g on the day of the experiment.
Drugs were stored at −20° C. and defrosted on the day of the experiment. Peptide P58 was provided lyophilized; it was taken back to room temperature and dissolved with sterile PBS before use to make an initial 1 mg/ml solution. […]
Flow cytometry was performed using FACScan analyser (Becton Dickinson, Cowley, UK) with air-cooled 100 mW argon laser tuned to 488 nm connected to an Apple Macintosh G3 computer running Cell Quest II software. […] Cells positive for GR-1 were detected in the FL2 channel (wavelength of 548 nm). Data are expressed as percentage of positive cells (in relation to the specific mAb). […] Once determined, quadrants were rigorously maintained for all analyses.
Data are shown for single mice, and also shown as mean±S.E. of (n) mice per group. Statistical differences were determined by ANOVA, plus Student Newman Keuls test. […]

FPRL1 [2] = molecular target: T1, FPRL1 (Homo sapiens, UniProt P25090); test: Calcium flux in CHO-K1 cells co-transfected with FPRL1 and Gα16; assay type: cell-based; design: expressed in transfected cells; host or cells: CHO-K1 (ATCC-CCL-61), transient co-transfection
T1 sequence (P25090 1-351): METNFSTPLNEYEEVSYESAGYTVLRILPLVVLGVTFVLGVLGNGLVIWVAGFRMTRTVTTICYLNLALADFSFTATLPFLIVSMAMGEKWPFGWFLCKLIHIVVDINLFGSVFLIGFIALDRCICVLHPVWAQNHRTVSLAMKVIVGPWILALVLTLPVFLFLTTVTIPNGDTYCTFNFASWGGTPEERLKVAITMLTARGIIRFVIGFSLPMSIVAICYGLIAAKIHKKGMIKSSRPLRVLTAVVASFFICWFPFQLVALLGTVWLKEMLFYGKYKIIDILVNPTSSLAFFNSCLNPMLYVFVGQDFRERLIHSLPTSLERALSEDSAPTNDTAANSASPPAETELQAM
Procedure: The assay was carried out in CHO cells were transiently transfected with the GPCR of choice, by utilizing the promiscuous Gα16 to divert signaling to the Gq pathway, thus enabling readout of GPCR activation by testing for Calcium flux as described by Liu et al 2003 (Biomol Screen 8, 39-49).
All the peptides thus obtained were tested for their ability to change calcium flux in CHO—K1 cells (ATCC-CCL-61) transiently co-transfected with an expression vector containing the GPCR of choice and expression vector containing the Gα16 encoding cDNA. Expression constructs containing cDNA clones for MrgX1, MrgX2, Mas or FPRL1 were commercially obtained in one of the following expression vectors: pcDNA3.1, pCMV6, or MO2.
Transient transfections were performed using CHO—K1 cells as host cells. Cells (12 million) were plated into T75 flasks on the day preceding transfection. Cells were transfected with the appropriate GPCR expression vector and with a vector expressing Gα16 using a lipid-based reagent, MTI, according to the manufacturer's recommendation. Cells were transfected for 5 hours, then re-plated into 96-well dishes (60,000 cells per well) and grown overnight.
On the day of the experiment, cells were loaded with Fluo4-NW (Invitrogen) according to the manufacturer's recommendation. Plates were loaded into a FlexStation™ (Molecular Devices) plate reader and fluorescence was monitored. Seventeen seconds following initiation of reading, cells were stimulated with the indicated agonist/compound at final concentration of 1 μM. Each 96 well plate contained cells transfected with one GPCR expression vector and each of the examined peptides was tested in triplicate.
We defined a hit as a peptide which elicited a clear and distinct increase in intracellular calcium that is clearly visible and statistically significant upon examination of the calcium trace for at least two repeats. The criterion for statistical significance was a p-value lower than 0.001 in a t-test comparing the levels of calcium before and after peptide addition.
Based on dose response experiments, EC50 best fit values were calculated by non-linear regression of sigmoidal dose-response curves, using Prism version 4 (GraphPad Software Inc., San Diego, Calif.). The formulae for the sigmoidal dose-response curves was defined as Y=Bottom+(Top−Bottom)/(1+10^ (LogEC50−X)*HillSlope))
The ability of Peptides to change calcium flux was examined in CHO—K1 cells co-transfected with FPRL1 and Gal 6.

FPRL1 [3] = molecular target: T1, FPRL1; test: Competitive radioligand binding assay ([125I] WKYMVm) to FPRL1 in CHO transfected cells; design: expressed in transfected cells; host or cells: CHO transfected cells; details: 0.025 nM [125I] WKYMVm, 90 minutes at 25° C.; read-out: IC50, inhibition of W peptide binding
Procedure: The specific binding of Peptide 58 (SEQ ID NO:1) to FPRL1 was analyzed by testing its ability to compete with 0.025 nM [^125I] WKYMVm (W peptide), a known agonist of FPRL1, for binding to FPRL1 in CHO transfected cells. CKβ8-1 (aa 46-137), another known ligand of FPRL1 was used as a positive control in this assay (Chiang et al 2006, Pharmacological Reviews 58, 463-487). Peptides were incubated with cells for 90 minutes at 25° C., in the presence of Incubation Buffer (50 mM HEPES, pH 7.4, 100 mM NaCl, 5 mM KCl, 5 mM MgCl2, 2 mM Ca Cl2, 0.5% BSA) and the amount of radioactive W peptide was measured.

calcium flux relative to the negative control (FPRL1 [2]; 1 μM, three wells, about 20 to 90 seconds) | calcium flux, P58 and derivatives (FPRL1 [2]; dose response) | IC50 (FPRL1 [3]) [µM] | Substance | inhibition of leukocyte accumulation triggered by zymosan A [1] | inhibition of neutrophil (GR-1+) accumulation triggered by zymosan A ([1]; FACS) [%]
– | – | – | Ac2-26: a peptide derived from the N-terminus of AnnexinI; known FPRL1 agonist possessing anti-inflammatory activity; positive control (AMVSEFLKQAWFIENEEQEYVQTVK) | inhibited significantly | 52
increased calcium flux | elicited calcium flux | 0.189 | TIPMFVPESTSKLQKFTSWFM-NH2 [Peptide P58] | – | –
